In patent US11078228B2, “Ectonucleotidase inhibitors and methods of use thereof” (Calithera Biosciences, Inc., priority 2018, dated 2021):

target: recombinant CD73 (Homo sapiens (Human), UniProt P21589); test: Assay 2: Inhibition of the CD73 enzyme in vitro (0.05 nM CD73, 1 hour 37° C., Malachite Green); assay type: biochemical; settings: 0.05 nM CD73, 50 μM AMP, 1 hour at 37° C.
Experimental: For measurements of soluble CD73 enzyme activity, recombinant CD73 was obtained from R&D Systems, Cat. No. 5795-EN-010. […] Reactions were allowed to proceed for 1 hour at 37° C. before the addition of 100 μL Malachite Green (Cell Signaling Technology, Cat. No. 12776). After 5 minutes at room temperature, absorbance at 630 nm was determined on a microplate spectrophotometer. The concentration of inorganic phosphate was determined using a phosphate standard curve.

recombinant CD73, sequence (P21589 27-547): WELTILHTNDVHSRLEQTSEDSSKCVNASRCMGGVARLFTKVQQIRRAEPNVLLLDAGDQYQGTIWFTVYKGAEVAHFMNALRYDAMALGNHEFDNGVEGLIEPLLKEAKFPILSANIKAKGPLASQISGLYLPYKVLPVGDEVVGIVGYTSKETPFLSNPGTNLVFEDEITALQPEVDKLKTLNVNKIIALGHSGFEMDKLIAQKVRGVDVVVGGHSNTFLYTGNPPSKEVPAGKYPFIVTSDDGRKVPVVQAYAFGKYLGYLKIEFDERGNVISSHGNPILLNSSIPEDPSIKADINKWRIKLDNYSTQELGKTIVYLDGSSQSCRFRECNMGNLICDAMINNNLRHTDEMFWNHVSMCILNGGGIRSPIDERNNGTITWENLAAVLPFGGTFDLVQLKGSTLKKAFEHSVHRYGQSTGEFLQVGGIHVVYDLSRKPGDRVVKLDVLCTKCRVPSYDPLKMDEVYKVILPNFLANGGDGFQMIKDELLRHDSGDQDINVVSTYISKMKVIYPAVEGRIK

For `C#C[C@@]1(O)[C@@H](COC(Cc2ccccc2)(C(=O)O)C(=O)O)O[C@@H](n2cnc3c(NC4CCOC4)nc(Cl)nc32)[C@@H]1O` (stereo partly drawn) [Example 64, 2-benzyl-2-(((2R,3S,4R,5R)-5-(2-chloro-6-((tetrahydrofuran-3-yl)-amino)-9H-purin-9-yl)-3-ethynyl-3,4-dihydroxytetrahydrofuran-2-yl)methoxy)-malonic acid], which IC50 is on record?
The IC50 was 3 nM.

How did the IC50 turn out when `C#C[C@@]1(O)[C@@H](COC(Cc2ccccc2)(C(=O)O)C(=O)OCC)O[C@@H](n2cnc3c(NCc4ccncc4)nc(Cl)nc32)[C@@H]1O` (stereo partly drawn) [Example 109, 2-benzyl-2-(((2R,3S,4R,5R)-5-(2-chloro-6-((pyridin-4-ylmethyl)amino)-9H-purin-9-yl)-3-ethynyl-3,4-dihydroxytetrahydrofuran-2-yl)methoxy)-3-ethoxy-3-oxopropanoic acid] was run?
Its IC50 is 284 nM.

Which IC50 does the source give for `C#C[C@@]1(O)[C@@H](COC(Cc2ccc(N3CCCNC3=O)cc2)(C(=O)O)C(=O)O)O[C@@H](n2cnc3c(N)cc(Cl)nc32)[C@@H]1O` [Example 157, 2-(((2R,3S,4R,5R)-5-(7-amino-5-chloro-3H-imidazo[4,5-b]pyridin-3-yl)-3-ethynyl-3,4-dihydroxytetrahydrofuran-2-yl)methoxy)-2-(4-(2-oxotetrahydropyrimidin-1(2H)-yl)benzyl)malonic acid] here?
Its IC50 is 0.37 nM.

Which IC50 does the source give for `C#C[C@@]1(O)[C@@H](COC(Cc2ccccc2)(C(=O)O)C(=O)O)O[C@@H](n2cnc3c(N4CC[C@@H](O)C4)nc(Cl)nc32)[C@@H]1O` [Example 100, 2-benzyl-2-(((2R,3S,4R,5R)-5-(2-chloro-6-((R)-3-hydroxypyrrolidin-1-yl)-9H-purin-9-yl)-3-ethynyl-3,4-dihydroxytetrahydrofuran-2-yl)methoxy)malonic acid] here?
Its IC50 is 2 nM.

How did the IC50 turn out when `C#C[C@@]1(O)[C@@H](CO[C@@](Cc2ccccc2)(C(=O)O)c2cscn2)O[C@@H](n2cnc3c(NC(C)C)nc(Cl)nc32)[C@@H]1O` (single isomer, unassigned) [Example 171] was run?
Its IC50 is 96 nM.

How did the IC50 turn out when `C#C[C@@]1(O)[C@@H](COC(Cc2ccccc2)(C(=O)O)C(=O)O)O[C@@H](n2cnc3c(N(C)C4CCC4)nc(Cl)nc32)[C@@H]1O` [Example 81, 2-benzyl-2-(((2R,3S,4R,5R)-5-(2-chloro-6-(cyclobutyl(methyl)amino)-9H-purin-9-yl)-3-ethynyl-3,4-dihydroxytetrahydrofuran-2-yl)methoxy)malonic acid] was run?
Its IC50 is 0.4 nM.

How did the IC50 turn out when `C#C[C@@]1(O)[C@@H](COC(Cc2ccccc2)(C(=O)O)C(=O)O)O[C@@H](n2cnc3c(N[C@@H]4CCc5ccccc54)nc(Cl)nc32)[C@@H]1O` [Example 69, 2-benzyl-2-(((2R,3S,4R,5R)-5-(2-chloro-6-(((R)-2,3-dihydro-1H-inden-1-yl)amino)-9H-purin-9-yl)-3-ethynyl-3,4-dihydroxytetrahydrofuran-2-yl)methoxy)-malonic acid] was run?
Its IC50 is 3 nM.

For `C#C[C@@]1(O)[C@@H](COC(Cc2ccccc2)(C(=O)O)C(=O)O)O[C@@H](n2cnc3c(N4CCC4CO)nc(Cl)nc32)[C@@H]1O` (stereo partly drawn) [Example 42, 2-benzyl-2-(((2R,3S,4R,5R)-5-(2-chloro-6-(2-(hydroxymethyl)azetidin-1-yl)-9H-purin-9-yl)-3-ethynyl-3,4-dihydroxytetrahydrofuran-2-yl)methoxy)malonic acid], which IC50 is on record?
The IC50 was 1 nM.

With `C#C[C@@]1(O)[C@@H](COC(Cc2ccsc2)(C(=O)O)C(=O)O)O[C@@H](n2cnc3c(NCCO)nc(Cl)nc32)[C@@H]1O` [Example 32, 2-(((2R,3S,4R,5R)-5-(2-chloro-6-((2-hydroxyethyl)amino)-9H-purin-9-yl)-3-ethynyl-3,4-dihydroxytetrahydrofuran-2-yl)methoxy)-2-(thiophen-3-ylmethyl)malonic acid] as the compound, how does the IC50 read?
The IC50 was 3 nM.

`C#C[C@@]1(O)[C@@H](COC(Cc2ccsc2)(C(=O)O)C(=O)O)O[C@@H](n2cnc3c(NC(C)C)nc(Cl)nc32)[C@@H]1O` [Example 33, 2-(((2R,3S,4R,5R)-5-(2-chloro-6-(isopropylamino)-9H-purin-9-yl)-3-ethynyl-3,4-dihydroxytetrahydrofuran-2-yl)methoxy)-2-(thiophen-3-ylmethyl)malonic acid] was tested. Which IC50 did it give?
Its IC50 is 2 nM.

`C#C[C@@]1(O)[C@@H](COC(Cc2ccccc2)(C(=O)O)C(=O)O)O[C@@H](n2cnc3c(N4CC(O)C4)nc(Cl)nc32)[C@@H]1O` [Example 41, 2-benzyl-2-(((2R,3S,4R,5R)-5-(2-chloro-6-(3-hydroxyazetidin-1-yl)-9H-purin-9-yl)-3-ethynyl-3,4-dihydroxytetrahydrofuran-2-yl)methoxy)malonic acid] was tested. Which IC50 did it give?
The IC50 was 0.6 nM.

`C#C[C@@]1(O)[C@@H](COC(Cc2ccccc2)(C(=O)O)C(=O)O)O[C@@H](n2cnc3c(N(C)CC)nc(Cl)nc32)[C@@H]1O` [Example 66, 2-benzyl-2-(((2R,3S,4R,5R)-5-(2-chloro-6-(ethyl(methyl)amino)-9H-purin-9-yl)-3-ethynyl-3,4-dihydroxytetrahydrofuran-2-yl)methoxy)malonic acid] was tested. Which IC50 did it give?
The IC50 was 0.3 nM.

`C#C[C@@]1(O)[C@@H](COC(Cc2ccccc2)(C(=O)O)C(=O)O)O[C@@H](n2cnc3c(N4CCCCCC4)nc(Cl)nc32)[C@@H]1O` [Example 80, 2-(((2R,3S,4R,5R)-5-(6-(azepan-1-yl)-2-chloro-9H-purin-9-yl)-3-ethynyl-3,4-dihydroxytetrahydrofuran-2-yl)methoxy)-2-benzylmalonic acid] was tested. Which IC50 did it give?
Its IC50 is 2 nM.

Which IC50 does the source give for `C#C[C@@]1(O)[C@@H](COC(Cc2ccccc2)(C(=O)O)C(=O)O)O[C@@H](n2cnc3c(NCC4(O)CCC4)nc(Cl)nc32)[C@@H]1O` [Example 40, 2-benzyl-2-(((2R,3S,4R,5R)-5-(2-chloro-6-(((1-hydroxycyclobutyl)-methyl)amino)-9H-purin-9-yl)-3-ethynyl-3,4-dihydroxytetrahydrofuran-2-yl)methoxy)malonic acid] here?
The IC50 was 3 nM.

How did the IC50 turn out when `C#C[C@@]1(O)[C@@H](CO[C@H](Cc2ccc(N3CCCNC3=O)cc2)C(=O)O)O[C@@H](n2cnc3c(N)nc(Cl)nc32)[C@@H]1O` (single isomer, unassigned) [Example 166] was run?
The IC50 was 145 nM.

How did the IC50 turn out when `C#C[C@@]1(O)[C@@H](COC(Cc2nccs2)(C(=O)O)C(=O)O)O[C@@H](n2cnc3c(N)nc(Cl)nc32)[C@@H]1O` [Example 142, 2-(((2R,3S,4R,5R)-5-(6-amino-2-chloro-9H-purin-9-yl)-3-ethynyl-3,4-dihydroxytetrahydrofuran-2-yl)methoxy)-2-(thiazol-2-ylmethyl)malonic acid] was run?
Its IC50 is 5 nM.

Which IC50 does the source give for `C#C[C@@]1(O)[C@@H](COC(Cc2ccccc2)(C(=O)O)C(=O)O)O[C@@H](n2cnc3c(NCC4CCC4)nc(Cl)nc32)[C@@H]1O` [Example 45, 2-benzyl-2-(((2R,3S,4R,5R)-5-(2-chloro-6-((cyclobutylmethyl)amino)-9H-purin-9-yl)-3-ethynyl-3,4-dihydroxytetrahydrofuran-2-yl)methoxy)malonic acid] here?
Its IC50 is 1 nM.

Which IC50 does the source give for `C#C[C@@]1(O)[C@@H](COC(Cc2ccccc2)(C(=O)O)C(=O)O)O[C@@H](n2cnc3c(N(CC)CC)nc(Cl)nc32)[C@@H]1O` [Example 96, 2-benzyl-2-(((2R,3S,4R,5R)-5-(2-chloro-6-(diethylamino)-9H-purin-9-yl)-3-ethynyl-3,4-dihydroxytetrahydrofuran-2-yl)methoxy)malonic acid] here?
Its IC50 is 3 nM.

How did the IC50 turn out when `C#C[C@@]1(O)[C@@H](COC(Cc2ccccc2)(C(=O)O)C(=O)O)O[C@@H](n2cnc3c(NCC)nc(Cl)nc32)[C@@H]1O` [Example 73, 2-benzyl-2-(((2R,3S,4R,5R)-5-(2-chloro-6-(ethylamino)-9H-purin-9-yl)-3-ethynyl-3,4-dihydroxytetrahydrofuran-2-yl)methoxy)malonic acid] was run?
Its IC50 is 1 nM.

Which IC50 does the source give for `C#C[C@@]1(O)[C@@H](COC(Cc2ccccc2)(C(=O)O)C(=O)O)O[C@@H](n2cnc3c(NC4CC4)nc(Cl)nc32)[C@@H]1O` [Example 83, 2-benzyl-2-(((2R,3S,4R,5R)-5-(2-chloro-6-(cyclopropylamino)-9H-purin-9-yl)-3-ethynyl-3,4-dihydroxytetrahydrofuran-2-yl)methoxy)malonic acid] here?
The IC50 was 1 nM.

With `C#C[C@@]1(O)[C@@H](COC(Cc2ccccc2)(C(=O)O)C(=O)O)O[C@@H](n2cnc3c(NCCOC)nc(Cl)nc32)[C@@H]1O` [Example 38, 2-benzyl-2-(((2R,3S,4R,5R)-5-(2-chloro-6-((2-methoxyethyl)amino)-9H-purin-9-yl)-3-ethynyl-3,4-dihydroxytetrahydrofuran-2-yl)methoxy)malonic acid] as the compound, how does the IC50 read?
The IC50 was 3 nM.

With `C#C[C@@]1(O)[C@@H](COC(Cc2cscn2)(C(=O)O)C(=O)O)O[C@@H](n2cnc3c(N)nc(Cl)nc32)[C@@H]1O` [Example 126, 2-(((2R,3S,4R,5R)-5-(6-amino-2-chloro-9H-purin-9-yl)-3-ethynyl-3,4-dihydroxytetrahydrofuran-2-yl)methoxy)-2-(thiazol-4-ylmethyl)malonic acid] as the compound, how does the IC50 read?
The IC50 was 9 nM.

For `C#C[C@@]1(O)[C@@H](COC(Cc2ccc(N3CCCNC3=O)cc2)(C(=O)O)C(=O)O)O[C@@H](n2cnc3c(NC)nc(Cl)nc32)[C@@H]1O` [Example 141, 2-(((2R,3S,4R,5R)-5-(2-chloro-6-(methylamino)-9H-purin-9-yl)-3-ethynyl-3,4-dihydroxytetrahydrofuran-2-yl)methoxy)-2-(4-(2-oxotetrahydropyrimidin-1 (2H)-yl)benzyl)malonic acid], which IC50 is on record?
Its IC50 is 0.23 nM.

With `C#C[C@@]1(O)[C@@H](COC(Cc2ccc(N3CCCNC3=O)cc2)(C(=O)O)C(=O)O)O[C@@H](n2ccc(N)nc2=O)[C@@H]1O` [Example 135, 2-(((2R,3S,4R,5R)-5-(4-amino-2-oxopyrimidin-1(2H)-yl)-3-ethynyl-3,4-dihydroxytetrahydrofuran-2-yl)methoxy)-2-(4-(2-oxotetrahydropyrimidin-1 (2H)-yl)benzyl)malonic acid] as the compound, how does the IC50 read?
The IC50 was 91 nM.
